target: Factor D (Homo sapiens, UniProt P00746); experiment: Factor D esterolytic assay (Z-Lys-SBzl thioester substrate, DTNB, 405 nm); type: biochemical; conditions: substrate Z-Lys-SBzl 1.29 mM, 100 mM HEPES, 500 mM NaCl, pH 7.5, 10% DMSO, tested a minimum of three times
Summary of the method: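 Run in pH 7.5 HEPES (100 mM) with 500 mM NaCl and 10% DMSO, with compound preincubated at room temperature or not before adding 1.29 mM Z-Lys-SBzl. Free thiol released by Factor D reacts with DTNB, and rate is followed at 405 nm minus 690 nm over 600 s. IC50 derives from rate-based inhibition, minimum three replicates.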

Sequence of Factor D (P00746 26-253): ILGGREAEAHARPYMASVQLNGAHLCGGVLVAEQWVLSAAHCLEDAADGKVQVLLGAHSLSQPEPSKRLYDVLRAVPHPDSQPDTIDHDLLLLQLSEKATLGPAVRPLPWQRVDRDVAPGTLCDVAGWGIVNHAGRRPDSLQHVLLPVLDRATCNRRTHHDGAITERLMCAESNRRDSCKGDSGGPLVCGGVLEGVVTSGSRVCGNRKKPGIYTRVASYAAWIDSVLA

IC50 [µM] | Structure (SMILES)
< 0.1 | Cc1cc(F)c(Br)nc1NC(=O)[C@@H]1C[C@@]2(C)C[C@H]2N1C(=O)Cn1c2ncnc(N)c2c2cc(C(F)(F)F)cc(C)c21 [Compound 333c, (1R,3S,5R)-2-(2-(4-amino-8-methyl-6-(trifluoromethyl)-9H-pyrimido[4,5-b]indol-9-yl)acetyl)-N-(6-bromo-5-fluoro-3-methylpyridin-2-yl)-5-methyl-2-azabicyclo[3.1.0]hexane-3-carboxamide]
< 0.1 | C[C@@]12C[C@@H](C(=O)Nc3cccc(Br)n3)N(C(=O)Cn3c4ccc(OC(F)(F)F)cc4c4c(N)ncnc43)[C@@H]1C2 [Compound 334a, (1R,3S,5R)-2-(2-(4-amino-6-(trifluoromethoxy)-9H-pyrimido[4,5-b]indol-9-yl)acetyl)-N-(6-bromopyridin-2-yl)-5-methyl-2-azabicyclo[3.1.0]hexane-3-carboxamide]
< 0.1 | Nc1ncnc2c1c1cc(-c3ccc(F)cc3)ccc1n2CC(=O)N1[C@@H]2C[C@@H]2C[C@H]1C(=O)Nc1cccc(Br)n1 [Compound 335c, (1R,3S,5R)-2-(2-(4-amino-6-(4-fluorophenyl)-9H-pyrimido[4,5-b]indol-9-yl)acetyl)-N-(6-bromopyridin-2-yl)-2-azabicyclo[3.1.0]hexane-3-carboxamide]
< 0.1 | C[C@@]12C[C@@H](C(=O)Nc3cccc(Br)n3)N(C(=O)Cn3c4ccc(-c5ccco5)cc4c4c(N)ncnc43)[C@@H]1C2 [Compound 336c, (1R,3S,5R)-2-(2-(4-amino-6-(furan-2-yl)-9H-pyrimido[4,5-b]indol-9-yl)acetyl)-N-(6-bromopyridin-2-yl)-5-methyl-2-azabicyclo[3.1.0]hexane-3-carboxamide]
< 0.1 | C[C@@]12C[C@@H](C(=O)Nc3cccc(Br)n3)N(C(=O)Cn3c4ccc(-c5ccc(F)cc5)cc4c4c(N)ncnc43)[C@@H]1C2 [Compound 337a, (1R,3S,5R)-2-(2-(4-amino-6-(4-fluorophenyl)-9H-pyrimido[4,5-b]indol-9-yl)acetyl)-N-(6-bromopyridin-2-yl)-5-methyl-2-azabicyclo[3.1.0]hexane-3-carboxamide]
< 0.1 | C[C@@]12C[C@@H](C(=O)Nc3cccc(Br)n3)N(C(=O)Cn3c4ccc(C5CCCC5)cc4c4c(N)ncnc43)[C@@H]1C2 [Compound 338e, (1R,3S,5R)-2-(2-(4-amino-6-cyclopentyl-9H-pyrimido[4,5-b]indol-9-yl)acetyl)-N-(6-bromopyridin-2-yl)-5-methyl-2-azabicyclo[3.1.0]hexane-3-carboxamide]
< 0.1 | COCc1ccc2c(c1)c1c(N)ncnc1n2CC(=O)N1[C@@H]2C[C@@H]2C[C@H]1C(=O)Nc1cccc(Br)n1 [Compound 339g, (1R,3S,5R)-2-(2-(4-amino-6-(methoxymethyl)-9H-pyrimido[4,5-b]indol-9-yl)acetyl)-N-(6-bromopyridin-2-yl)-2-azabicyclo[3.1.0]hexane-3-carboxamide]
< 0.1 | COCc1ccc2c(c1)c1c(N)ncnc1n2CC(=O)N1[C@H](C(=O)Nc2cccc(Br)n2)C[C@@]2(C)C[C@@H]12 [Compound 340a, (1R,3S,5R)-2-(2-(4-amino-6-(methoxymethyl)-9H-pyrimido[4,5-b]indol-9-yl)acetyl)-N-(6-bromopyridin-2-yl)-5-methyl-2-azabicyclo[3.1.0]hexane-3-carboxamide]
< 0.1 | COc1cccc(-c2cc(C)c3c(c2)c2c(N)ncnc2n3CC(=O)N2[C@@H]3C[C@@H]3C[C@H]2C(=O)Nc2cccc(Br)n2)c1 [Compound 341c, (1R,3S,5R)-2-(2-(4-amino-6-(3-methoxyphenyl)-8-methyl-9H-pyrimido[4,5-b]indol-9-yl)acetyl)-N-(6-bromopyridin-2-yl)-2-azabicyclo[3.1.0]hexane-3-carboxamide]
< 0.1 | COc1cccc(-c2cc(C)c3c(c2)c2c(N)ncnc2n3CC(=O)N2[C@H](C(=O)Nc3cccc(Br)n3)C[C@@]3(C)C[C@@H]23)c1 [Compound 342a, (1R,3S,5R)-2-(2-(4-amino-6-(3-methoxyphenyl)-8-methyl-9H-pyrimido[4,5-b]indol-9-yl)acetyl)-N-(6-bromopyridin-2-yl)-5-methyl-2-azabicyclo[3.1.0]hexane-3-carboxamide]
< 0.1 | Cc1ncc(-c2cc(C)c3c(c2)c2c(N)ncnc2n3CC(=O)N2C[C@](C)(F)C[C@H]2C(=O)Nc2cccc(Cl)n2)cn1 [Compound 343a, (2S,4R)-1-(2-(4-amino-8-methyl-6-(2-methylpyrimidin-5-yl)-9H-pyrimido[4,5-b]indol-9-yl)acetyl)-N-(6-chloropyridin-2-yl)-4-fluoro-4-methylpyrrolidine-2-carboxamide]
< 0.1 | COc1cc(Br)nc(NC(=O)[C@@H]2C[C@H]3C[C@H]3N2C(=O)Cn2c3ncnc(N)c3c3cc(C(F)(F)F)cc(C)c32)c1 [Compound 344c, (1R,3S,5R)-2-(2-(4-amino-8-methyl-6-(trifluoromethyl)-9H-pyrimido[4,5-b]indol-9-yl)acetyl)-N-(6-bromo-4-methoxypyridin-2-yl)-2-azabicyclo[3.1.0]hexane-3-carboxamide]
< 0.1 | Cc1cc(C(F)(F)F)cc2c3c(N)ncnc3n(CC(=O)N3[C@@H]4C[C@@H]4C[C@H]3C(=O)Nc3cccc(OC(F)F)n3)c12 [Compound 345c, (1R,3S,5R)-2-(2-(4-amino-8-methyl-6-(trifluoromethyl)-9H-pyrimido[4,5-b]indol-9-yl)acetyl)-N-(6-(difluoromethoxy)pyridin-2-yl)-2-azabicyclo[3.1.0]hexane-3-carboxamide]
< 0.1 | Cc1nc(C(F)(F)F)cc2c3c(N)ncnc3n(CC(=O)N3[C@@H]4C[C@@H]4C[C@H]3C(=O)Nc3cccc(Br)n3)c12 [Compound 346g, (1R,3S,5R)-2-(2-(4-amino-8-methyl-6-(trifluoromethyl)-9H-pyrido[4′,3′:4,5]pyrrolo[2,3-d]pyrimidin-9-yl)acetyl)-N-(6-bromopyridin-2-yl)-2-azabicyclo[3.1.0]hexane-3-carboxamide]
< 0.1 | Cc1nc(C(F)(F)F)cc2c3c(N)ncnc3n(CC(=O)N3[C@H](C(=O)Nc4cccc(Br)n4)C[C@@]4(C)C[C@@H]34)c12 [Compound 347a, (1R,3S,5R)-2-(2-(4-amino-8-methyl-6-(trifluoromethyl)-9H-pyrido[4′,3′:4,5]pyrrolo[2,3-d]pyrimidin-9-yl)acetyl)-N-(6-bromopyridin-2-yl)-5-methyl-2-azabicyclo[3.1.0]hexane-3-carboxamide]
< 0.1 | Cc1cc(C(F)(F)F)cc2c3c(N)ncnc3n(CC(=O)N3[C@@H]4C[C@@H]4C[C@H]3C(=O)Nc3cncc(C(F)(F)F)n3)c12 [Compound 348c, (1R,3S,5R)-2-(2-(4-amino-8-methyl-6-(trifluoromethyl)-9H-pyrimido[4,5-b]indol-9-yl)acetyl)-N-(6-(trifluoromethyl)pyrazin-2-yl)-2-azabicyclo[3.1.0]hexane-3-carboxamide]
< 0.1 | Cc1cc(C(F)(F)F)cc2c3c(N)ncnc3n(CC(=O)N3[C@@H]4C[C@@H]4C[C@H]3C(=O)Nc3cccc(C(F)(F)F)n3)c12 [Compound 349c, (1R,3S,5R)-2-(2-(4-amino-8-methyl-6-(trifluoromethyl)-9H-pyrimido[4,5-b]indol-9-yl)acetyl)-N-(6-(trifluoromethyl)pyridin-2-yl)-2-azabicyclo[3.1.0]hexane-3-carboxamide]
< 0.1 | Cc1nc(C(F)(F)F)cc2c3c(N)ncnc3n(CC(=O)N3[C@H](C(=O)Nc4cncc(Br)n4)C[C@@]4(C)C[C@@H]34)c12 [Compound 350a, (1R,3S,5R)-2-(2-(4-amino-8-methyl-6-(trifluoromethyl)-9H-pyrido[4′,3′:4,5]pyrrolo[2,3-d]pyrimidin-9-yl)acetyl)-N-(6-bromopyrazin-2-yl)-5-methyl-2-azabicyclo[3.1.0]hexane-3-carboxamide]
< 0.1 | Cc1nc(C(F)(F)F)cc2c3c(N)ncnc3n(CC(=O)N3[C@H](C(=O)Nc4cccc(Cl)n4)C[C@@]4(C)C[C@@H]34)c12 [Compound 351a, (1R,3S,5R)-2-(2-(4-amino-8-methyl-6-(trifluoromethyl)-9H-pyrido[4′,3′:4,5]pyrrolo[2,3-d]pyrimidin-9-yl)acetyl)-N-(6-chloropyridin-2-yl)-5-methyl-2-azabicyclo[3.1.0]hexane-3-carboxamide]
< 0.1 | Cc1cc(-c2ccoc2)cc2c3c(N)ncnc3n(CC(=O)N3[C@@H]4C[C@@H]4C[C@H]3C(=O)Nc3cccc(Br)n3)c12 [Compound 352c, (1R,3S,5R)-2-(2-(4-amino-6-(furan-3-yl)-8-methyl-9H-pyrimido[4,5-b]indol-9-yl)acetyl)-N-(6-bromopyridin-2-yl)-2-azabicyclo[3.1.0]hexane-3-carboxamide]
< 0.1 | Cc1cc(-c2ccoc2)cc2c3c(N)ncnc3n(CC(=O)N3[C@H](C(=O)Nc4cccc(Br)n4)C[C@@]4(C)C[C@@H]34)c12 [Compound 353a, (1R,3S,5R)-2-(2-(4-amino-6-(furan-3-yl)-8-methyl-9H-pyrimido[4,5-b]indol-9-yl)acetyl)-N-(6-bromopyridin-2-yl)-5-methyl-2-azabicyclo[3.1.0]hexane-3-carboxamide]
< 0.1 | Cc1cc(-c2ccnc(C(F)(F)F)c2)cc2c3c(N)ncnc3n(CC(=O)N3[C@@H]4C[C@@H]4C[C@H]3C(=O)Nc3cccc(Br)n3)c12 [Compound 354c, (1R,3S,5R)-2-(2-(4-amino-8-methyl-6-(2-(trifluoromethyl)pyridin-4-yl)-9H-pyrimido[4,5-b]indol-9-yl)acetyl)-N-(6-bromopyridin-2-yl)-2-azabicyclo[3.1.0]hexane-3-carboxamide]
< 0.1 | Cc1cc(-c2ccnc(C(F)(F)F)c2)cc2c3c(N)ncnc3n(CC(=O)N3[C@H](C(=O)Nc4cccc(Br)n4)C[C@@]4(C)C[C@@H]34)c12 [Compound 355a, (1R,3S,5R)-2-(2-(4-amino-8-methyl-6-(2-(trifluoromethyl)pyridin-4-yl)-9H-pyrimido[4,5-b]indol-9-yl)acetyl)-N-(6-bromopyridin-2-yl)-5-methyl-2-azabicyclo[3.1.0]hexane-3-carboxamide]

Reference: patent US12679843B2, “Pyrrolopyrimidine amines as complement inhibitors” (BioCryst Pharmaceuticals, Inc., priority 2020, dated 2026)
